Read-outs that look alike come from different tables or passages of the source.
Tests used:
[1] = octanol/water, pH 7.4; source not stated; cited from earlier work
[2] = Dose-adjusted steady-state trough serum concentrations before and after low-calorie diet and bariatric surgery; type: in vivo, human; conditions: for Course of dose-adjusted concentration after surgery: following the low-calorie diet; for Change in dose-adjusted concentration over the pre-surgery low-calorie diet: after the pre-surgery diet, before surgery, median weight reduction 6 kg; for Reduction of dose-adjusted concentration on the last day of sampling: post-surgery versus pre-surgery, substances with samples from six or more participants; for Concentration, Baseline: drug dose 10 mg
From the text: We designed the study as a naturalistic longitudinal, prospective case series with intra-individual comparisons of drug concentrations over time, before and up to 1 year after the surgical procedure.
The participants contributed blood samples to the current study during routine pre-surgery visits before, and post-surgery visits about 8 weeks, 6 months, and 1 year after, the surgery. Pre-surgery sampling generally occurred twice: at an initial preoperative assessment visit, and just before surgery. Between these visits, that is, before surgery, patients were required to adhere to a low-calorie diet and show a weight reduction. The samples were stored as serum in −80 °C at a biobank, and analysed after all samples had been collected.
Before every routine visit at which the sampling was to occur, we contacted the participants by telephone to systematically obtain information on the current dose as well as adherence to the drug treatment in question over the 2 preceding weeks. Samples were excluded from the data set if non-adherence less than four elimination half-lives prior to sampling was reported; exceptions were made for occasional missed doses of fluoxetine. Half-lives applied were those described for a drug or its metabolite in the summary of product characteristics. We also asked for and recorded concomitant drug treatment, weight, and smoking status. To be able to relate potential changes in concentration to health consequences, we asked the participants during the follow-up phone calls, using an open question, if anything had happened to their health since the last visit. To obtain trough blood concentrations, we strived to schedule the routine visits before lunchtime and the participants were instructed not to take morning tablets before the sampling.
Specific substances were analysed concomitantly, using clinical routine methods, at accredited laboratories at the Department of Clinical Chemistry, Sahlgrenska University Hospital, Gothenburg, Sweden, or (as for gabapentin, hydroxybupropion, mianserine, pregabalin, paroxetine and topiramate) at the Department of Clinical Pharmacology, St. Olav’s Hospital, Trondheim, Norway. Analysis methods were based on liquid chromatography/tandem mass spectrometry or (for lamotrigine and valproic acid) enzyme immunoassay.
Statistical analyses were performed using SPSS, version 23.0 (IBM SPSS Statistics for Windows, Armonk, NY, USA). Participants treated with the same substance before and after surgery, with one or more trough sample concentrations available, were included in the analysis. To allow interindividual and intraindividual comparisons, serum concentrations were adjusted for defined daily dose (DDD). For example, since DDD for citalopram is 20 mg, a DDD-adjusted citalopram concentration of 100 nmol/L could represent a measured concentration of 50, 100, or 200 nmol/L, given a daily dose of 10, 20, or 40 mg, respectively. To compare pre- to post-surgery concentrations, as well as pre- to post-diet concentrations, we used Wilcoxon signed rank test for substances with samples available for six or more individuals. We used Spearman’s correlation to explore the relationship between the ratio of the post-/pre-diet concentrations and (i) the distribution coefficient for the drug in question, i.e., the logarithm of the ratio of its concentration in a lipophilic and a hydrophilic solution (logD), as well as (ii) the weight loss in kilograms for pregabalin.

[3] = historical data or matched non-surgery subjects as controls; cited from earlier work
[4] = Table 2A, antiepileptics, trough serum, adjusted for dose in DDDs
[5] = Table 2A, antiepileptics, trough serum, adjusted for dose in DDDs, last observation carried forward, median 379 days after surgery
[6] = Table 2B, antiepileptics, trough serum, adjusted for dose in DDDs, after pre-surgery low-calorie diet
[7] = Table 2B, antiepileptics, trough serum, adjusted for dose in DDDs, before low-calorie diet

CNCC[C@H](Oc1cccc2ccccc12)c1cccs1 [Duloxetine]
logD [1]: 1.54
Course of dose-adjusted concentration after surgery [2]: continued to decrease
Change in dose-adjusted concentration over the pre-surgery low-calorie diet [2]: varied
Dose-adjusted drug concentration Median (IQR), Pre-diet/pre-surgery ([2]; human, in vivo): 127 (96–203) nmol/L
Dose-adjusted drug concentration Median (IQR), post-diet ([2]; human, in vivo): 105 (64–235) nmol/L
Dose-adjusted drug concentration Median (IQR), pre-diet ([2]; human, in vivo): 127 (96–203) nmol/L
concentration at 379 days after surgery (median), trough ([2]; human, in vivo): 82 nM
Reduction of dose-adjusted concentration on the last day of sampling [2]: 35%

CN(C)C(=N)N=C(N)N [metformin]
Concentration change after the bariatric surgery procedure [3]: appeared to increase

CN(C)CCCC1(c2ccc(F)cc2)OCc2cc(C#N)ccc21 (centres unmarked) [Citalopram]
Concentration, Post-surgery ([2]; Case 1, GBP, day +252, drug dose 10 mg): 69 nM
Concentration, Post-surgery ([2]; Case 1, GBP, day +374, drug dose 20 mg): 158 nM
Concentration, Baseline ([2]; Case 1, GBP): 137 nM
Concentration, Post-surgery ([2]; Case 2, GBP, day +178, drug dose 10 mg): 42 nM
Concentration, Post-surgery ([2]; Case 2, GBP, day +386, drug dose 20 mg): 90 nM
Concentration, Baseline ([2]; Case 2, GBP): 89 nM
Reduction of dose-adjusted concentration on the last day of sampling [2]: 19%

CN(C)CCC=C1c2ccccc2CCc2ccccc21 [Amitriptyline]
Dose-adjusted drug concentration Median (IQR), Pre-diet/pre-surgery ([2]; Table 2A, trough serum, adjusted for dose in DDDs): 283 (N/A) nmol/L
Dose-adjusted drug concentration Median (IQR), Post-surgery ([2]; Table 2A, trough serum, adjusted for dose in DDDs, last observation carried forward, median 379 days after surgery): 218 (N/A) nmol/L
Dose-adjusted drug concentration Median (IQR), post-diet ([2]; Table 2B, trough serum, adjusted for dose in DDDs, after pre-surgery low-calorie diet): 279 (N/A) nmol/L
Dose-adjusted drug concentration Median (IQR), pre-diet ([2]; Table 2B, trough serum, adjusted for dose in DDDs, before low-calorie diet): 283 (N/A) nmol/L

COc1c(N2C[C@@H]3CCCN[C@@H]3C2)c(F)cc2c(=O)c(C(=O)O)cn(C3CC3)c12 [moxifloxacin]
Concentration change after the bariatric surgery procedure [3]: appeared to increase

CCCC(CCC)C(=O)O [Valproic acid]
Dose-adjusted drug concentration Median (IQR), Pre-diet/pre-surgery [2, 4]: 533 (N/A) µmol/L
Dose-adjusted drug concentration Median (IQR), Post-surgery [2, 5]: 529 (N/A) µmol/L
Dose-adjusted drug concentration Median (IQR), post-diet [2, 6]: 759 (N/A) µmol/L
Dose-adjusted drug concentration Median (IQR), pre-diet [2, 7]: 737 (N/A) µmol/L

OCCOCCN1CCN(C2=Nc3ccccc3Sc3ccccc32)CC1 [Quetiapine]
Change in dose-adjusted concentration over the pre-surgery low-calorie diet [2]: decreased
Dose-adjusted drug concentration Median (IQR), Pre-diet/pre-surgery ([2]; human, in vivo): 848 (N/A) nmol/L
Dose-adjusted drug concentration Median (IQR), post-diet ([2]; human, in vivo): 260 (N/A) nmol/L
Dose-adjusted drug concentration Median (IQR), pre-diet ([2]; human, in vivo): 848 (N/A) nmol/L
Dose-adjusted drug concentration Median (IQR), Post-surgery ([2]; human, in vivo, 379 days after surgery (median), trough): 239 (N/A) nmol/L

NCCC(Oc1ccc(C(F)(F)F)cc1)c1ccccc1 (centres unmarked) [norfluoxetine]
Course of dose-adjusted concentration after surgery [2]: continued to increase also after surgery

NCC1(CC(=O)O)CCCCC1 [Gabapentin]
Dose-adjusted drug concentration Median (IQR), Pre-diet/pre-surgery [2, 4]: 34 (N/A) µmol/L
Dose-adjusted drug concentration Median (IQR), Post-surgery [2, 5]: 35 (N/A) µmol/L
Dose-adjusted drug concentration Median (IQR), post-diet [2, 6]: 43 (N/A) µmol/L
Dose-adjusted drug concentration Median (IQR), pre-diet [2, 7]: 28 (N/A) µmol/L
Change in dose-adjusted concentration over the pre-surgery low-calorie diet [2]: increased

Nc1nnc(-c2cccc(Cl)c2Cl)c(N)n1 [Lamotrigine]
Dose-adjusted drug concentration Median (IQR), Pre-diet/pre-surgery [2, 4]: 17 (15–23) µmol/L
Dose-adjusted drug concentration Median (IQR), post-diet [2, 6]: 23 (19–29) µmol/L
Dose-adjusted drug concentration Median (IQR), pre-diet [2, 7]: 17 (15–25) µmol/L
Change in dose-adjusted concentration over the pre-surgery low-calorie diet [2]: increased
concentration at 379 days after surgery (median), trough ([2]; human, oral, Table 2A, antiepileptics, trough serum, adjusted for dose in DDDs, last observation carried forward, median 379 days after surgery, read-out: Dose-adjusted drug concentration Median (IQR), Post-surgery): 18000 nM

Reference: article PMC8585833, “Serum concentrations of antidepressants, antipsychotics, and antiepileptics over the bariatric surgery procedure” (European Journal of Clinical Pharmacology, 2021)
